This note sets out measurements from PubChem BioAssay (NCI).

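Tested at 5 concentrations; 48 h exposure; 96-well plates; endpoints linearly interpolated, else capped at highest concentration. Here, GI50 denotes the concentration required for 50% inhibition of growth. TGI: total growth inhibition.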

Some test systems named below: CCRF-CEM leukemia; HOP-92 NSCLC; HT29 colon; KM12 colon; M14 melanoma; NCI-H226 lung; RPMI-8226 leukemia; SW-620 colon; UACC-257 melanoma; UO-31 renal.
Holding throughout (assay): DTP human tumour cell line panel, 48 h

The term GI50 denotes the concentration that inhibits growth by half. One may read the TGI as the concentration at which net growth stops. In the case of `O=C1NC(=O)/C(=C\c2ccccc2)C2=C1CCCC2`, the GI50 was 3.7 µM in the experiment on CCRF-CEM leukemia; 15.9 µM in the experiment on HOP-92 NSCLC; 14.9 µM in the experiment with HT29 colon; 9.21 µM in the experiment with KM12 colon; 3.72 µM in the experiment on M14 melanoma; 10.8 µM in the experiment with NCI-H226 lung. In addition, the GI50 with RPMI-8226 leukemia was 1.91 µM; in the experiment on SW-620 colon, 2.37 µM; in the experiment on UACC-257 melanoma, 8.11 µM; in the experiment with UO-31 renal it was 7.43 µM. Besides, the TGI was > 37.9 µM in the experiment on CCRF-CEM leukemia; 38.2 µM in the experiment with HOP-92 NSCLC; 44.1 µM in the experiment with HT29 colon; 22 µM in the experiment with KM12 colon; 12.8 µM in the experiment with M14 melanoma; 23 µM in the experiment with NCI-H226 lung. In addition, the TGI in the experiment with SW-620 colon is 6.94 µM; with UACC-257 melanoma it was 22.5 µM; in the experiment with UO-31 renal, 21.8 µM.

Regarding `COc1cc2c(OC)cc1CSCc1sc(C)c(c1Br)CSC2`, the TGI in the experiment with CCRF-CEM leukemia, in the experiment on HOP-92 NSCLC, in the experiment on HT29 colon, in the experiment on KM12 colon, in the experiment on M14 melanoma and with NCI-H226 lung was > 100 µM in each case. For the same compound, the total growth inhibition concentration (TGI) in the experiment with RPMI-8226 leukemia, in the experiment on SW-620 colon, with UACC-257 melanoma and in the experiment with UO-31 renal was > 100 µM throughout.

As to `CN(CCO)c1ccc(N2Cc3ccccc3OC3=C2C(=O)c2c(O)ccc(O)c2C3=O)cn1`, the GI50 was 0.0566 µM with CCRF-CEM leukemia; 0.223 µM in the experiment on HOP-92 NSCLC; 0.172 µM with HT29 colon; 0.387 µM in the experiment with KM12 colon; 0.192 µM with M14 melanoma; 0.854 µM in the experiment on NCI-H226 lung. For the same compound, the GI50 in the experiment with RPMI-8226 leukemia was 0.227 µM; with SW-620 colon, 0.0728 µM; in the experiment on UACC-257 melanoma, 0.277 µM; in the experiment on UO-31 renal, 0.0971 µM. In addition, the TGI with CCRF-CEM leukemia stood at 0.548 µM; with HOP-92 NSCLC it was 0.505 µM; in the experiment on HT29 colon, 0.468 µM; with KM12 colon, 1.63 µM; with M14 melanoma, 0.409 µM; in the experiment on NCI-H226 lung, 2.95 µM. The TGI in the experiment with RPMI-8226 leukemia worked out at 0.713 µM; with SW-620 colon, 0.328 µM; with UACC-257 melanoma it was 0.791 µM; in the experiment with UO-31 renal it was 0.304 µM.

Consider `NC(=O)OCCn1cc(-c2nc(-c3c[nH]c4ncccc34)cs2)c2ccccc21`, for which the GI50 was 2.65 µM with CCRF-CEM leukemia; 0.668 µM in the experiment on HOP-92 NSCLC; 1.77 µM in the experiment on HT29 colon; 1.44 µM in the experiment on KM12 colon; 1.33 µM in the experiment with M14 melanoma; 1.68 µM in the experiment with NCI-H226 lung. For the same compound, the GI50 with RPMI-8226 leukemia is 2.04 µM; with SW-620 colon, 1.3 µM; in the experiment on UACC-257 melanoma, 2.08 µM; in the experiment with UO-31 renal, 0.621 µM. For the same compound, the TGI in the experiment on CCRF-CEM leukemia was determined as 16.9 µM; in the experiment on HOP-92 NSCLC it was 3.71 µM; in the experiment on HT29 colon it was 8.55 µM; with KM12 colon, 9.45 µM; with M14 melanoma, 4.53 µM; in the experiment on NCI-H226 lung, 12.5 µM. The TGI was 8.03 µM with RPMI-8226 leukemia, 4.53 µM in the experiment with SW-620 colon, 7.88 µM with UACC-257 melanoma and 4.65 µM in the experiment on UO-31 renal.

For the compound `COc1ccc(-c2coc3c4c(ccc3c2=O)OCO4)cc1OC`, the total growth inhibition concentration (TGI) with CCRF-CEM leukemia, in the experiment on HOP-92 NSCLC, in the experiment with HT29 colon, in the experiment on KM12 colon, with M14 melanoma and with NCI-H226 lung was > 100 µM throughout. Further, the total growth inhibition concentration (TGI) in the experiment on RPMI-8226 leukemia, in the experiment with SW-620 colon, in the experiment on UACC-257 melanoma and in the experiment on UO-31 renal was > 100 µM in each case.

With `COc1cc(C(=O)N2CCN(c3ncccn3)CC2)c(N)cc1OCc1ccccc1`, the GI50 in the experiment on CCRF-CEM leukemia, with HOP-92 NSCLC, in the experiment with HT29 colon, in the experiment with KM12 colon, in the experiment with M14 melanoma and in the experiment on NCI-H226 lung was > 100 µM in each case. Besides, the GI50 with RPMI-8226 leukemia, in the experiment on SW-620 colon, in the experiment with UACC-257 melanoma and in the experiment with UO-31 renal was > 100 µM in each case. Besides, the total growth inhibition concentration (TGI) in the experiment with CCRF-CEM leukemia, in the experiment with HOP-92 NSCLC, with HT29 colon, in the experiment on KM12 colon, in the experiment on M14 melanoma and with NCI-H226 lung was > 100 µM in each case. Also, the concentration for total growth inhibition (TGI) in the experiment on RPMI-8226 leukemia, in the experiment on SW-620 colon, with UACC-257 melanoma and in the experiment on UO-31 renal was > 100 µM throughout.

With `COC1(OC)CC2C(=O)N(Cc3ccccc3)C1C=C2S(=O)(=O)c1ccccc1` (centres undefined), the concentration for total growth inhibition (TGI) was 44.9 µM in the experiment with CCRF-CEM leukemia; 54.1 µM in the experiment with HOP-92 NSCLC; 33.8 µM in the experiment with HT29 colon; 31.6 µM in the experiment on KM12 colon; 35 µM in the experiment with M14 melanoma; 47.3 µM in the experiment on NCI-H226 lung. Further, the TGI in the experiment with RPMI-8226 leukemia is 63.1 µM; in the experiment with SW-620 colon, 28.5 µM; in the experiment with UACC-257 melanoma it was 34.5 µM; with UO-31 renal it was 65.1 µM.

For the compound `Cc1cc(C)c(/C=C2\C(=O)Nc3ccc(NC(=O)CCCCCCC(=O)NO)cc32)[nH]1`, the 50% growth inhibitory concentration (GI50) in the experiment with CCRF-CEM leukemia was 0.311 µM; in the experiment with HOP-92 NSCLC it was 0.47 µM; with HT29 colon, 0.859 µM; in the experiment with KM12 colon, 7.2 µM; in the experiment with M14 melanoma, 0.75 µM; in the experiment with NCI-H226 lung, > 100 µM. Further, the GI50 is > 100 µM in the experiment with RPMI-8226 leukemia, 0.317 µM with SW-620 colon, 0.418 µM in the experiment with UACC-257 melanoma and > 100 µM in the experiment on UO-31 renal. The TGI in the experiment with CCRF-CEM leukemia, in the experiment with HOP-92 NSCLC, with HT29 colon, in the experiment with KM12 colon, in the experiment with M14 melanoma and in the experiment with NCI-H226 lung was > 100 µM each time. Also, the TGI with RPMI-8226 leukemia is > 100 µM; with SW-620 colon, 36.2 µM; in the experiment with UACC-257 melanoma it was > 100 µM; in the experiment with UO-31 renal, > 100 µM.

Take `O=C(Nc1ccc(F)cc1)c1cc(S(=O)(=O)Nc2nc3ccccc3o2)c(SCc2ccccc2)cc1Cl`: the GI50 with CCRF-CEM leukemia is 12.9 µM; in the experiment on HOP-92 NSCLC, 18.5 µM; with HT29 colon, 27 µM; with KM12 colon, 17.5 µM; with M14 melanoma it was 16 µM; with NCI-H226 lung, 12.1 µM. For the same compound, the GI50 is 17.8 µM in the experiment on RPMI-8226 leukemia, 17.6 µM in the experiment with SW-620 colon, 13.5 µM in the experiment on UACC-257 melanoma and 14.1 µM with UO-31 renal. In addition, the concentration for total growth inhibition (TGI) in the experiment with CCRF-CEM leukemia was 31.2 µM; in the experiment with HOP-92 NSCLC it was 42.4 µM; in the experiment on HT29 colon, > 100 µM; in the experiment on KM12 colon it was 33.9 µM; with M14 melanoma, 30.8 µM; with NCI-H226 lung, 28.4 µM. Besides, the TGI in the experiment on RPMI-8226 leukemia was determined as 56.8 µM; in the experiment on SW-620 colon, 33.3 µM; in the experiment with UACC-257 melanoma it was 28.4 µM; in the experiment on UO-31 renal, 29.2 µM.
